Assay results: US6979553B2, “Use of Nernstein voltage sensitive dyes in measuring transmembrane voltage” (Caliper Life Sciences, Inc., priority 1999, dated 2005)
Structures can show the parent of a compound that is named as a salt. Where two headings read alike, the source gives them in different places.

How the values were obtained:
[1] = system: peripheral blood T lymphocytes; type: cell-based, human; settings: for change in DiBAC4(3)/Syto 62 ratio (depolarization): resting T lymphocytes
Source text: Resting or mitogen activated peripheral blood T lymphocytes (90% CD3+) were flowed through the chip and mixed with ion channel modulators accessed through the Sipper™ capillary. Average DiBAC4(3)/Syto 62 ratios ±SE (n=2–6) are shown.
Thus, cell based assays of calcium flux and membrane potential were run in the lab-on-a-chip system. A novel approach for measurement of membrane potential was used to detect hyperpolarization and depolarization with high sensitivity. The microfluidic format reduced reagent, sample and cell consumption. As few as 50–200 cells and as little as 10 nl of sample were used per test. […]

THP-1 cells [2] = assay: Lab-on-a-chip membrane potential assay, uptake of DiBAC4(3) and Syto 62 by THP-1 cells; type: cell-based
Source text: The microfluidic technology used in the LabChip® system for this example utilizes microchannels etched into quartz chips coupled with a sampling micropipette that can access samples from microtitre plates. The LabChip® system accesses liquid samples sequentially from a microplate, mixes the samples with cells flowing through a microchannel and reads out cellular responses using fluorescence detection. The system was applied to the measurement of changes in transmembrane potential. […].
As show in FIG. 8, panel A and panel B, the lab-on-a-chip system which was used consisted of quartz chip 801 containing microchannels 803 and 805 connected to Sipper™ capillary 807, robot 809 to move microplate 811, light source 813, optics 815 and fluorescence reader 817, vacuum pump 816, and a computer to control system functions and record data. Light from light source 813 (e.g., mercury arc lamp (470 nm) or an argon ion laser) was focused onto microchip 801 with through optics 815 comprising an objective (10×, 0.3 NA air). Fluorescence was collected with the objective, split into two channels (525 nm and 700 nm) and detected with fluorescence reader 817 which comprises photodiodes. Fluorescence readings were acquired at 20–90 Hz. The three axis robot 809 was used to position microplate 811 so that chip 801 could sample microplate 811, whether in a 96 or 384 well configuration.
A schematic of chip 801 with 90×20 μm channels is shown in FIG. 8, panel B. Flowing cells from cell well 819 were mixed with samples introduced through the Sipper™ capillary 807 (20 μm ID). The flow rate in the detection channel was varied from 2 to 10 nl/s by varying the vacuum applied to waste well 821. Agonists or dyes were added from side well 823. The incubation time in detection channel 803 was varied between 10 and 75 seconds by varying the applied pressure and the location of detector elements (e.g., optics 815) relative to chip 801.
As shown in panel A, the potential sensitive fluorescence signal was derived not from the slow re-equilibration of dyes that were pre-loaded into cells but rather from the rate of uptake of charged, membrane-permeable dyes. Using both an anionic dye, DiBAC4(3), and a cationic dye, Syto 62, yielded a ratiometric measurement with increased sensitivity. Cells were mixed on chip with test samples and dyes stored on the chip. After a short incubation in the detection channel, the fluorescence of individual cells was detected.
As shown in panel B, peaks in green (DiBAC) and red (Syto 62) fluorescence corresponded to THP-1 cells mixed with either buffer, UTP or quinidine sulfate flowing past the detector following a 75 second dye incubation.
As shown in panels C and D, the rate of uptake of DiBAC4(3) (C) and Syto 62 (D) was determined from the average fluorescence peak height as a function of the incubation time for resting cells (∘), cells hyperpolarized with UTP (▪) and cells depolarized with quinidine sulfate (Δ). Compared to resting cells, the rate of increase of DiBAC4(3) peak heights was 48±11% (mean±se, n=5) higher for depolarized cells and 43±5% lower for hyperpolarized cells. Similarly, the rate of increase of the Syto 62 peaks was 7±2% lower for depolarized cells and 37±3% higher for hyperpolarized cells.
As shown in panel A, a calibration curve relating the ratio of DiBAC4(3)/Syto 62 fluorescence (n=20 to 130 cells) to membrane potential was constructed by increasing the K+ conductance of the THP-1 cells and varying the extracellular K+ concentration. […]

THP-1 cells [3] = assay: Transmembrane potential assay on Caliper 3B5 microfluidic processor, THP-1 cells; type: cell-based; settings: 50 μM UTP in high sodium buffer, resting approximately −40 mV
Description: Changes in the cell transmembrane potential were detected in microfluidic processor by the mixing of cells and the dyes DiBAC4(3) and SYTO62. […] Dye uptake by THP-1 cells was measured on a Caliper® 3B5 microfluidic processor (FIG. 5). One of the long channels of the processor contained THP-1 cells (3×10^6 cells/ml) suspended in high sodium buffer as above, while the other long channel contained 400 nM DiBAC4(3) and 10 μM SYTO62 in high sodium buffer. Transmembrane potential was set to resting potential, hyperpolarization or depolarization by placing either high sodium, 50 μM UTP in high sodium or high potassium buffer in the short arm. Resting, hyperpolarized and depolarized potentials are estimated to be approximately −40, −100 and 0 mV respectively. The microfluidic processor was maintained at room temperature (˜23° C.). DiBAC4(3) and SYTO62 fluorescence was read after the cells had traveled approximately 90 seconds from the junction (ΔP˜1″H2O). Panel A depicts the average fluorescence ratio (DiBAC4(3)/SYTO62) for runs of ˜80 cells each. Error bars are standard error values. As shown in panel B, Histograms show the expected voltage dependent changes in the fluorescence intensities of individual cells as a function of transmembrane potential.

Compound: Clc1ccccc1C(c1ccccc1)(c1ccccc1)n1ccnc1 [clotrimazole]
- change in DiBAC4(3)/Syto 62 ratio ([1]; mitogen activated T lymphocytes in the presence of ionomycin, 30 μM, p<0.05): ratio increases significantly
- change in DiBAC4(3)/Syto 62 ratio (depolarization) ([1]; 30 μM): not

Compound: margatoxin (TIINVKCTSPKQCLPPCKAQFGQSAGAKCMNGKCKCYPH; UniProt P40755 1-39, looked up)
- change in DiBAC4(3)/Syto 62 ratio (depolarization) ([1]; 36 μM, p<0.05): significant increase in DiBAC4(3)/Syto 62 ratio

Compound: O=c1ccn([C@@H]2O[C@H](COP(=O)(O)OP(=O)(O)OP(=O)(O)O)[C@@H](O)[C@H]2O)c(=O)[nH]1 [UTP]
- rate of increase of DiBAC4(3) peak heights, lower compared to resting cells (THP-1 cells [2]; hyperpolarized cells): 43±5%
- rate of increase of the Syto 62 peaks, higher compared to resting cells (THP-1 cells [2]; hyperpolarized cells): 37±3%
- transmembrane potential (hyperpolarized), estimated (THP-1 cells [3]): ~−100 mV

Compound: C[C@H](CCC(=O)O)C[C@H](C)C[C@H](C)C(=O)/C=C(\O)[C@H](C)C[C@H](C)C/C=C/[C@@H](C)[C@@H](O)[C@@H](C)[C@@H](O)C[C@@H]1CC[C@@](C)([C@H]2CC[C@@](C)([C@@H](C)O)O2)O1 [ionomycin]
- DiBAC4(3)/Syto 62 ratio (hyperpolarization) ([1]; mitogen activated T lymphocytes in the presence of ionomycin, compared to resting T lymphocytes, p<0.05): lower ratio compared to resting T lymphocytes
- change in DiBAC4(3)/Syto 62 ratio (depolarization) ([1]; 15 μM): not

Compound: C=C[C@H]1C[N@@]2CC[C@H]1C[C@@H]2[C@@H](O)c1ccnc2ccc(OC)cc12 [quinidine sulfate]
- change in the average DiBAC4(3)/Syto 62 ratio (THP-1 cells [2]; average±SD, n=3): dose dependent depolarization
- rate of increase of the Syto 62 peaks, lower compared to resting cells (THP-1 cells [2]; depolarized cells): 7±2%
- rate of increase of DiBAC4(3) peak heights, higher compared to resting cells (THP-1 cells [2]; depolarized cells, mean±se, n=5): 48±11%
